Experimental data published in PMC5344539, “Nematode neuropeptides as transgenic nematicides” (PLoS Pathogens, 2017).
Entries after “also recorded” stand apart in the source; their conditions may differ.

Legend:
[1] = system: G. pallida J2s; assay: Chemosensory (chemotaxis) assay of uNLP pre-treated J2s towards tomato root exudate; type: in vivo, Globodera pallida; conditions: Fig 2A; J2s incubated in 100 μM uNLP for 24 h; tomato cv. Moneymaker root exudate vs water agar plugs; counted after 3 h; mean of 10 replicates of 100 J2s; control 0.4154
Experimental: (§1) Predicted uNLPs from both M. incognita and G. pallida were synthesised by EZBiolab and dissolved into pH adjusted ddH2O to make a 5 mM stock which was aliquoted and stored at -20°C. J2s of both M. incognita and G. pallida were incubated for 24 hours in 200 μl of each peptide in a 24 well plate (SPL Lifesciences, South Korea) at a defined concentration.
(§2) A 60 mm Petri dish was divided into two segments, a positive and a negative side, with a 0.5 cm 'dead zone' either side of the centre point. The petri dish was filled with 15 ml of 0.25% w/v agar which was allowed to solidify. 3 ml of 0.25% w/v agar slurry in spring water (pH 7, agitated with a magnetic stirrer for several hours to give a smooth consistency) was added to the petri dish and spread evenly over the surface. Root diffusate (attractant) and water only (control) 0.25% agar plugs were embedded in the agar slurry, either side of the assay arena. Root diffusate was collected from 10 tomato plants, aged 3–6 weeks in 1 litre pots, by pouring 500 ml of ddH20 through the soil three times. Diffusate from each plant was combined, filter sterilised and stored at 4°C for a maximum of 1 month. Root diffusate agar plugs were made by melting 1.25% agar in ddH20, cooling to 50°C before mixing with 4 parts of root diffusate. The agar was then allowed to solidify at room temperature. 100 uNLP pre-treated M. incognita or G. pallida J2s were added by pipette to the centre of the plate. J2s which moved out of the 'dead zone' after 3 hours were counted and their location (+/-) scored. The distribution of J2s were used to create a chemotaxis index for each plate, which formed one replicate, a total of 10 replicates where completed for each uNLP treatment.

[2] = system: G. pallida J2s; assay: Tomato invasion assay with uNLP pre-treated J2s; type: in vivo, Globodera pallida; conditions: Fig 2B; 500 J2s incubated in 100 μM uNLP for 24 h; single tomato seedling, 24 h at 18°C; normalised to negative control = 100%; mean
Experimental: as §1
(§3) Tomato seeds were sterilised with 2.5% NaOCl for 15 minutes, washed 5 times in ddH20 and germinated on 0.5% Murashige and Skoog plates at 23°C. […] Invasion assays were performed by mixing 500 pre-treated M. incognita or G. pallida J2s with agar slurry and a single tomato seedling (2 days post germination) in a 6 well plate. Assays were left at 23°C for 24 hours in the case of M. incognita and at 18°C for 24 hours in the case of G. pallida under a 16 hour light and 8 hour darkness cycle. Seedlings were stained using acid fuschin [69] and the number of nematodes within the roots counted. At least five seedlings were used for M. incognita infections assays, with at least 15 seedlings used for G. pallida infections assays (due to increased variation).

[3] = system: M. incognita J2s; assay: Chemosensory (chemotaxis) assay of uNLP pre-treated J2s towards tomato root exudate; type: in vivo, Meloidogyne incognita; conditions: for CI score: Fig 1A, J2s incubated in 100 μM uNLP for 24 h, tomato cv. Moneymaker root exudate vs water agar plugs, counted after 3 h, mean of 10 replicates of 100 J2s, control 0.4426
Experimental: as §1, §2

[4] = system: mixed-stage C. elegans; assay: C. elegans chemotaxis assay (non-target); type: in vivo, Caenorhabditis elegans; conditions: worms soaked in 100 μM uNLP 24 h, counted after 1 h, 8 replicates
Experimental: C. elegans wild-type N2 Bristol strain were obtained from the C. elegans Genomics Center and maintained on a Escherichia coli (strain OP50) lawn on nematode growth medium (NGM) agar plates (3 g/l NaCl, 17 g/l agar, 2.5 g/l peptone, 5 mg/l cholesterol, 25 mM KH2PO4 (pH 6.0), 1 mM CaCl2, 1 mM MgSO4) at 20°C [70]. Chemotaxis assays were performed in a 9 cm diameter Petri dish on NGM agar which was split into a positive and negative side with a central ‘dead zone’ of 1.5 cm diameter. 100 mixed-staged C. elegans were washed three times in M9 buffer and soaked in 100 μM PPN uNLP, or M9 vehicle control for 24 hours. 2 μl of 50 mM sodium acetate, 0.5% pyrazine, 0.5% benzaldehyde or 0.5% diacetyl was spotted onto the positive side, 2 μl of ddH20 was spotted onto the negative side. Pyrazine, benzaldehyde and diacetyl volatile attractants were assayed immediately whereas the water soluble sodium acetate was assayed 18 hours following addition to the plate. Assays were maintained in the dark at 20°C, and counted after 1 hour. Eight replicates were conducted for each C. elegans attraction assay.

[5] = system: M. incognita J2s; assay: Plant protection assay, C. reinhardtii secreting uNLPs; type: in vivo, Meloidogyne incognita; conditions: Fig 4A; peptide secreted by transgenic C. reinhardtii culture in tomato invasion arena with 500 J2s; relative to untransformed C. reinhardtii = 100%; mean
Experimental: as §3
(§4) B. subtilis were grown overnight in LB media containing ampicillin (100 μg/ml) at 37°C with shaking, and harvested in the log phase of growth determined by measuring OD600nm. Five ml of culture at 0.5 OD was spun down and the pellet mixed with 3 ml of agar slurry and 500 J2s from either G. pallida or M. incognita. C. reinhardtii clones were grown at 23°C with shaking, cultures in the log phase were measured at OD750 and 5 ml of culture at 0.5 OD was pelleted by centrifugation. C. reinhardtii pellets were mixed with 3 ml of agar slurry and 500 J2s from either G. pallida or M. incognita. Plant invasion assays were performed as described above. […]

[6] = system: S. carpocapsae infective juveniles (IJs); assay: S. carpocapsae host-finding assay (non-target); type: in vivo, Steinernema carpocapsae; conditions: Fig 5E; chemotaxis towards insect host Galleria mellonella; 100 IJs incubated 24 h in 100 μM uNLP; n = 5; control 0.2315
Experimental: S. carpocapsae were cultured in Galleria mellonella at 23°C. Infective juveniles (IJs) were collected using a White trap in PBS. Freshly emerged IJs were used for each assay. 100 IJs were incubated for 24 hours in 100 μM of selected uNLPs, and host-finding assays (n = 5) performed as in Morris et al..

[7] = system: M. incognita J2s; assay: Tomato invasion assay with uNLP pre-treated J2s; type: in vivo, Meloidogyne incognita
Experimental: as §1, §3

[8] = system: M. incognita J2s; assay: Serotonin-induced stylet thrusting assay; type: in vivo, Meloidogyne incognita; conditions: Fig 1C; J2s incubated in 100 μM uNLP for 24 h; stylet thrusts in 5 mM serotonin, counted 1 min; normalised to control = 100%; mean, at least 30 J2s
Experimental: as §1
Stylet thrusting assays where performed by incubating 100 M. incognita or G. pallida J2s for 15 minute in 5 mM or 2 mM serotonin (Sigma Aldrich, USA), respectively. J2s were placed on a glass slide and stylet thrusts were counted for randomly selected J2s, for 1 minute each. Counts for a given cohort of J2s were taken in a maximum interval of 15 minutes. Longer counting intervals, making for longer serotonin incubations, yielded inconsistent results. At least 30 J2s were counted for each neuropeptide treatment.

[9] = system: M. incognita J2s; assay: Plant protection assay, B. subtilis secreting uNLPs; type: in vivo, Meloidogyne incognita; conditions: Fig 4B; peptide secreted by transgenic B. subtilis culture in tomato invasion arena with 500 J2s; control = 100%; mean
Experimental: as §3, §4

[10] = Fig 5A, attractant sodium acetate (50 mM), control 0.4269
[11] = Fig 5B, attractant pyrazine (0.5%), control 0.4904
[12] = Fig 5C, attractant benzaldehyde (0.5%), control 0.7026
[13] = Fig 5D, attractant diacetyl (0.5%), control 0.6638

Substance	CI score [1]	% Invasion [2] [%]	CI score [3]	CI score [4, 10]	CI score [4, 11]	CI score [4, 12]	CI score [4, 13]	CI score [6]	further results
AGGRYFMRHFDDSPFAGWMA [Gp-NLP-21g, predicted unamidated NLP of G. pallida, synthesised]	-0.01357	214.80	–	–	–	–	–	–	–
GGARAFNFFAPDE [Gp-NLP-21b, predicted unamidated NLP of G. pallida, synthesised]	-0.117	6.90	–	–	–	–	–	–	–
GGGRYFIRPFADQ [Mi-NLP-9f, predicted unamidated NLP of M. incognita, synthesised; also secreted from transgenic C. reinhardtii]	–	–	-0.26	0.5261	0.4599	0.7463	0.6	0.2462	effect on chemosensation (in words) ([3]; 100 μM uNLP, 24 h, relative to controls): inhibit chemosensation; also recorded: inhibited; % Invasion [5]: 10.32%; effect on host invasion (in words) ([7]; 100 μM uNLP, 24 h, tomato cv. Moneymaker, relative to controls): inhibited; % Invasion ([7]; Fig 1B, 500 J2s incubated in 100 μM uNLP for 24 h, single tomato seedling, 24 h at 23°C, normalised to negative control = 100%, mean): 28.22%
MVSWQPV [Mi-NLP-40, predicted unamidated NLP of M. incognita, synthesised; also secreted from transgenic B. subtilis]	–	–	-0.04	0.482	0.5018	0.6686	0.5858	0.3057	% Thrusting [8]: 210%; % Invasion [9]: 23.72%
SGIQTFRDDYDEKQAGEL [Gp-NLP-21d, predicted unamidated NLP of G. pallida, synthesised]	–	2.01	–	–	–	–	–	–	–
